Data on 34 molecules can be found in article PMC3605901 (Bioorganic & medicinal chemistry, 2013).

For one series, the system named is HeLa cells. The experiment in a line: Mammalian cytotoxicity assay. It counts as cell-based. Particulars: up to 100 μM, the highest concentration tested; 24 hours.
The target in series [1] is streptokinase (SK) expression in GAS strain UMAA2616. The experiment in a line: microbe, parasite or virus in culture. Format: cell-based, Streptococcus pyogenes (Group A Streptococcus). Particulars: for IC50: read-out: IC50 (SK activity).
A short description of series [2]: Microsomal stability assay. The conditions noted are these: for MLM t1/2: half-life of parent compound during incubation with mouse liver microsomes, 1 μM, 0.5 mg/mL, NADPH; for half-life at 1 μM: mouse, microsomes. (In general: Microsomes from liver hold many membrane-bound enzymes, among them those of drug oxidation.)
Another series is described as follows: Aqueous. The conditions noted are these: for Aq. Sol.: kinetic solubility in aqueous Todd Hewitt (THY) bacterial media, 37°C.
Series [3] relates to S. aureus biofilm formation. Nature of the series: Biofilm formation, plate-based OD assay. Format: cell-based, Staphylococcus aureus. The conditions noted are these: reported in greater detail in ref 28.
Another series has as its system GAS strain UMAA2616. The experiment in a line: microbe, parasite or virus in culture. It counts as cell-based, Streptococcus pyogenes (Group A Streptococcus). The conditions noted are these: Streptococcus pyogenes, UMAA2616, read-out: 50 μM Growth T/C.
The next series relates to GAS infection. Particulars: transgenic mouse model of GAS infection; cited from earlier work.
Setting [4] is: full dose-response titration, approximate IC50.

A word on the IC50: it is the concentration that inhibits the measured activity by half. A word on the solubility: it is the dissolved amount per volume that the medium holds. What is called half-life is how long it takes for the measured level to halve. Read a high half-life as slow loss.

≈ marks a conversion by molar mass, not a printed value. Entries after “also recorded” stand apart in the source; their conditions may differ. Like-named read-outs stand apart in the source and are kept apart here.

In the case of “2-((2-Methoxyethyl)thio)-4-(4-methoxyphenethoxy)-5,5-dimethyl-5,6-dihydrobenzo[h]quinazoline [20a]”, the “Inhibition of HeLa cell growth” value with HeLa cells is at most 35%. Moreover, the IC50 in series [1] (setting [4]) was 5.5 ± 0.7 µM. In series [2], the “MLM t1/2” value is listed as 45.1 min.

As for “2-(ethylthio)-9-methoxy-5,5-dimethyl-3-(2,2,2-trifluoroethyl)-5,6-dihydrobenzo[h]quinazolin-4(3H)-one [19b]”, the “MLM t1/2” value in series [2] is given as 3.0 min.

On to “2-(ethylthio)-9-methoxy-5,5-dimethyl-4-(2,2,2-trifluoroethoxy)-5,6-dihydrobenzo[h]quinazoline [20b]”, for which the “MLM t1/2” value in series [2] was found to be 45.5 min.

For “3-Allyl-2-(allylthio)-8-methoxy-5,5-dimethyl-5,6-dihydrobenzo[h]quinazolin-4(3H)-one [12k]”, in “Aqueous”, the “Aq. Sol.” value stood at 14.5 ± 3.5 µM. The IC50 in series [1] (setting [4]) worked out at 6.9 ± 0.3 µM. In series [2], the “MLM t1/2” value came out at 0.6 min. Moreover, the “S. aureus biofilm inhibition” value in series [3] is “potent S. aureus biofilm inhibitors”.

On to “3-Allyl-2-(ethylthio)-8-isopropoxy-5,5-dimethyl-5,6-dihydrobenzo[h]quinazolin-4(3H)-one [17f]”, for which, in the series “Aqueous”, the “Aq. Sol.” value was found to be 14.5 ± 3.5 µM. In series [1] (setting [4]), the IC50 was found to be 4.1 ± 0.7 µM.

Regarding “3-allyl-2-(ethylthio)-8-methoxy-5,5-dimethyl-5,6-dihydrobenzo[h]quinazolin-4(3H)-one [12c]”, the “Inhibition of HeLa cell growth” value in the series with HeLa cells is at most 35%. Besides, the “Aq. Sol.” value in “Aqueous” is 14.5 ± 3.5 µM. Moreover, the IC50 in series [1] (setting [4]) was determined as 3.1 ± 0.7 µM. Besides, in series [2], the “MLM t1/2” value turned out to be 0.8 min. For the same molecule, in series [3], the “S. aureus biofilm inhibition” value is given as “potent S. aureus biofilm inhibitors”.

With “3-allyl-2-(ethylthio)-9-methoxy-5,5-dimethyl-2,3,5,6-tetrahydrobenzo[h]quinazolin-4(1H)-one [12a]”, in the series with HeLa cells, the “Inhibition of HeLa cell growth” value was at most 35%. The “Aq. Sol.” value in the series “Aqueous” was 9 ± 2 µM. Further, in series [1], the “Fold improvement in potency (IC50) over 1” value is “greater than 35 fold” and the “Reduction in streptokinase activity at 5 μM” value was determined as 90%. In addition, in series [1] (setting [4]), the IC50 turned out to be 1.3 ± 0.6 µM. The “MLM t1/2” value in series [2] is given as 2.3 min.

As to “4-(allyloxy)-2-(ethylthio)-9-methoxy-5,5-dimethyl-5,6-dihydrobenzo[h]quinazoline [20c]”, the “MLM t1/2” value in series [2] was found to be 8.3 min.

Turning to `C=CCn1c(SCc2ccc(OC)cc2)nc2c(c1=O)C1(CCCCC1)Cc1ccccc1-2` [6a, 3-allyl-2-((4-methoxybenzyl)thio)-3H-spiro[benzo[h]quinazoline-5,1′-cyclohexan]-4(6H)-one], the activity at 50 µM with GAS strain UMAA2616 stood at 105 ± 6%.

As for `C=CCn1c(SCc2ccccc2)nc2c(c1=O)C1(CCCCC1)Cc1ccccc1-2` [6b, 3-allyl-2-(benzylthio)-3H-spiro[benzo[h]quinazoline-5,1′-cyclohexan]-4(6H)-one], in series [1] (Streptococcus pyogenes), the IC50 is over 50 µM. The activity at 50 µM in the series with GAS strain UMAA2616 was determined as 96 ± 6%.

As for `C=CCn1c(SCc2ccc(NC(C)=O)cc2)nc2c(c1=O)C1(CCCCC1)Cc1ccccc1-2` [6c, N-(4-(((3-allyl-4-oxo-4,6-dihydro-3H-spiro[benzo[h]quinazoline-5,1′-cyclohexan]-2-yl)thio)methyl)phenyl)acetamide], the activity at 50 µM with GAS strain UMAA2616 is 96 ± 14%.

For the molecule `C=CCn1c(SCCOC)nc2c(c1=O)C1(CCCCC1)Cc1ccccc1-2` [6d, 3-allyl-2-((2-methoxyethyl)thio)-3H-spiro[benzo[h]quinazoline-5,1′-cyclohexan]-4(6H)-one], in the series with GAS strain UMAA2616, the activity at 50 µM is 99 ± 10%.

For `C=CCn1c(SCCN(C)C)nc2c(c1=O)C1(CCCCC1)Cc1ccccc1-2` [6e, 3-allyl-2-((2-(dimethylamino)ethyl)thio)-3H-spiro[benzo[h]quinazoline-5,1′-cyclohexan]-4(6H)-one], in the series on GAS strain UMAA2616, the activity at 50 µM came out at 88 ± 20%.

Take `C=CCn1c(SC)nc2c(c1=O)C1(CCCCC1)Cc1ccccc1-2` [6f, 3-allyl-2-(methylthio)-3H-spiro[benzo[h]quinazoline-5,1′-cyclohexan]-4(6H)-one]: the activity at 50 µM in the series on GAS strain UMAA2616 is 98 ± 3%.

Take `C=CCn1c(OCC)nc2c(c1=O)C1(CCCCC1)Cc1ccccc1-2` [7a, 3-allyl-2-ethoxy-3H-spiro[benzo[h]quinazoline-5,1′-cyclohexan]-4(6H)-one]: in the series with GAS strain UMAA2616, the activity at 50 µM stood at 102 ± 9%.

For the molecule `C=CCn1c(NCC)nc2c(c1=O)C1(CCCCC1)Cc1ccccc1-2` [7b, 3-allyl-2-(ethylamino)-3H-spiro[benzo[h]quinazoline-5,1′-cyclohexan]-4(6H)-one], the activity at 50 µM with GAS strain UMAA2616 stood at 32 ± 18%.

With `C=CCn1c(SCC(N)=O)nc2c(c1=O)C(C)(C)Cc1ccccc1-2` [12d, 2-((3-allyl-5,5-dimethyl-4-oxo-3,4,5,6-tetrahydrobenzo[h]quinazolin-2-yl)thio)acetamide], the activity at 50 µM with GAS strain UMAA2616 amounted to 100 ± 2%.

Turning to `C=CCn1c(SCc2ccccn2)nc2c(c1=O)C(C)(C)Cc1ccccc1-2` [12e, 3-allyl-5,5-dimethyl-2-((pyridin-2-ylmethyl)thio)-5,6-dihydrobenzo[h]quinazolin-4(3H)-one], the activity at 50 µM in the series on GAS strain UMAA2616 turned out to be 105 ± 2%.

Turning to `C=CCn1c(SCCO)nc2c(c1=O)C(C)(C)Cc1ccccc1-2` [12f, 3-allyl-2-((2-hydroxyethyl)thio)-5,5-dimethyl-5,6-dihydrobenzo[h]quinazolin-4(3H)-one], the activity at 50 µM with GAS strain UMAA2616 is 6 ± 3%.

Consider `C=CCn1c(SCC#N)nc2c(c1=O)C(C)(C)Cc1ccccc1-2` [12g, 2-((3-allyl-5,5-dimethyl-4-oxo-3,4,5,6-tetrahydrobenzo[h]quinazolin-2-yl)thio)acetonitrile], for which, in “Aqueous”, the solubility at 5 min is 3 ± 1 µM (≈ 1.01 µg/mL). For the same molecule, the activity at 50 µM with GAS strain UMAA2616 worked out at 100 ± 3%.

In the case of `C=CCn1c(SCCOC)nc2c(c1=O)C(C)(C)Cc1ccccc1-2` [12h, 3-allyl-2-((2-methoxyethyl)thio)-5,5-dimethyl-5,6-dihydrobenzo[h]quinazolin-4(3H)-one], the “Inhibition of HeLa cell growth” value with HeLa cells is listed as at most 35%. Besides, the activity at 50 µM in the series on GAS strain UMAA2616 amounted to 86 ± 10%.

For the molecule `CCn1c(SCCOC)nc2c(c1=O)C(C)(C)Cc1ccccc1-2` [12i, 3-ethyl-2-((2-methoxyethyl)thio)-5,5-dimethyl-5,6-dihydrobenzo[h]quinazolin-4(3H)-one], the activity at 50 µM in the series on GAS strain UMAA2616 is 39 ± 15%.

Take `C=CCn1c(SCC(F)(F)F)nc2c(c1=O)C(C)(C)Cc1ccc(OC)cc1-2` [12l, 3-allyl-9-methoxy-5,5-dimethyl-2-((2,2,2-trifluoroethyl)thio)-5,6-dihydrobenzo[h]quinazolin-4(3H)-one]: in the series with GAS strain UMAA2616, the activity at 50 µM was 86 ± 7%. Also, the half-life at 1 μM in series [2] came out at 4.8 min.

For `CCSc1nc2c(c(=O)n1C)C(C)(C)Cc1ccc(OC)cc1-2` [12m, 2-(ethylthio)-9-methoxy-3,5,5-trimethyl-5,6-dihydrobenzo[h]quinazolin-4(3H)-one], in the series with GAS strain UMAA2616, the activity at 50 µM worked out at 83 ± 15%. In series [2], this molecule showed a half-life at 1 μM of 1.7 min.

Turning to `C=CCn1c(OCC)nc2c(c1=O)C(C)(C)Cc1ccccc1-2` [13a, 3-allyl-2-ethoxy-5,5-dimethyl-5,6-dihydrobenzo[h]quinazolin-4(3H)-one], the activity at 50 µM in the series on GAS strain UMAA2616 was determined as 50 ± 23%.

On to `C=CCn1c(NCC)nc2c(c1=O)C(C)(C)Cc1ccccc1-2` [13b, 3-allyl-2-(ethylamino)-5,5-dimethyl-5,6-dihydrobenzo[h]quinazolin-4(3H)-one], for which the activity at 50 µM in the series on GAS strain UMAA2616 is 6 ± 3%.

Take `COCCSc1nc2c(c(=O)n1CCc1ccc(OC)cc1)C(C)(C)Cc1ccccc1-2` [19a, 2-((2-Methoxyethyl)thio)-3-(4-methoxyphenethyl)-5,5-dimethyl-5,6-dihydrobenzo[h]quin-azolin-4(3H)-one]: the “Inhibition of HeLa cell growth” value in the series on HeLa cells is listed as at most 35%.

For `C=CCn1c(SCCCC)nc2c(c1=O)C1(CCCCC1)Cc1ccccc1-2` [compound 1, 3-allyl-2-(butylthio)-3H-spiro[benzo[h]quinazoline-5,1′-cyclohexan]-4(6H)-one], the “Inhibition of HeLa cell growth” value in the series with HeLa cells is recorded as at most 35%. Moreover, the “Efficacy in mouse models of GAS infection” value with GAS infection is recorded as “displayed efficacy; also recorded: significant protective effect”. In the series “Aqueous”, this molecule registered a solubility at 5 min of 2 ± 1 µM (≈ 0.789 µg/mL). The “% of plasmin activity at 50 μM” value in series [1] is 48 ± 28%. Besides, the IC50 in series [1] (Streptococcus pyogenes) was over 50 µM. Besides, the activity at 50 µM in the series with GAS strain UMAA2616 turned out to be 95 ± 8%. The “Fold higher stability to oxidation in MLM (comparison of t1/2)” value in series [2] (1 vs 6b, O-alkylated vs N-alkylated counterparts) is on record as “more than 60 fold”.

Take `C=CCn1c([S+]([O-])CC)nc2c(c1=O)C(C)(C)Cc1ccc(OC)cc1-2` (stereo not drawn) [compound 14, 3-allyl-2-(ethylsulfinyl)-9-methoxy-5,5-dimethyl-5,6-dihydrobenzo[h]quinazolin-4(3H)-one]: in the series with GAS strain UMAA2616, the activity at 50 µM is 101 ± 5%. The half-life at 1 μM in series [2] was 2.8 min.

`C=CCn1c(S(=O)(=O)CC)nc2c(c1=O)C(C)(C)Cc1ccc(OC)cc1-2` [compound 15, 3-allyl-2-(ethylsulfonyl)-9-methoxy-5,5-dimethyl-5,6-dihydrobenzo[h]quinazolin-4(3H)-one]: the activity at 50 µM in the series on GAS strain UMAA2616 was 103 ± 3%. The same molecule gave a half-life at 1 μM in series [2] of 3.8 min.

Turning to `CCn1c(SCc2ccccc2)nc2c(c1=O)C1(CCCC1)Cc1ccccc1-2` [compound 28], the activity at 50 µM in the series on GAS strain UMAA2616 worked out at 107 ± 4%.

Take `C=CCn1c(SCc2ccccc2)nc2c(c1=O)C(C)(C)Cc1ccccc1-2` [compound 29]: the “Inhibition of HeLa cell growth” value with HeLa cells is at most 35%. In addition, in the series on GAS strain UMAA2616, the activity at 50 µM was found to be 103 ± 3%.

Consider `C=CCn1c(SCC)nc2c(c1=O)C(C)(C)Cc1ccccc1-2` [compound 30], for which, in the series with GAS strain UMAA2616, the activity at 50 µM turned out to be 89 ± 5%.

As for `C=CCn1c(SCC(=O)OCC)nc2c(c1=O)C(C)(C)Cc1ccccc1-2` [compound 31], the activity at 50 µM in the series with GAS strain UMAA2616 turned out to be 101 ± 2%.
